Values after ≈ are worked out from the molar mass of the structure shown. Values joined by “and” are separate entries in the source; they are usually repeats but may differ in a detail not shown here. Equal values may be shown once. Read-outs that look alike come from different tables or passages of the source.
Legend:
[1] = test system: Proteus mirabilis SK & F 444; type: cell-based; conditions: Proteus mirabilis
[2] = test system: Staph. aureus SK & F 2682; type: cell-based; conditions: Staphylococcus aureus
[3] = test system: Staph. aureus SK & F 2594; type: cell-based; conditions: Staphylococcus aureus
Staph. aureus SK & F 675 = type: cell-based; conditions: Staphylococcus aureus
[4] = test system: Salmonella gallinarum BC595; experiment: microbe, parasite or virus in culture; conditions: Salmonella enterica
rumen in vitro model = rumen in vitro model (growth promotant activity); parameters: species or system steer
Method in brief: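 Rumen fluid sampled via cannula from a 400 kg steer fed once daily, taken 120 minutes post feeding; otherwise as swine in vitro model. Effect expressed as propionate production as percentage of total VFA produced.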

[5] = test system: Staph. aureus SK & F 2680; type: cell-based; conditions: Staphylococcus aureus
[6] = test system: Staph. aureus SK & F 2614; type: cell-based; conditions: Staphylococcus aureus
[7] = test system: E. coli 12140 (SK & F 809); type: cell-based; conditions: Escherichia coli
[8] = test system: Clostridium perfringens MCP-1; experiment: microbe, parasite or virus in culture; conditions: MCP1
Providencia SK & F 276 = type: cell-based; conditions: Providencia
[9] = test system: Staph. aureus SK & F 2736; type: cell-based; conditions: Staphylococcus aureus
Staph. aureus HH 127 = experiment: animal or person; conditions: Staphylococcus aureus, HH127, in Mus musculus
[10] = test system: Proteus morgani SK & F 179; type: cell-based
[11] = test system: Staph. aureus SK & F 2593; type: cell-based; conditions: Staphylococcus aureus
[12] = test system: B. thetaiotamicron SK & F 3089; type: cell-based
[13] = test system: Staph. aureus SK & F 2612; type: cell-based; conditions: Staphylococcus aureus
[14] = test system: Staph. aureus SK & F 2613; type: cell-based; conditions: Staphylococcus aureus
[15] = test system: Staph. aureus SK & F 2776; type: cell-based; conditions: Staphylococcus aureus
[16] = test system: Strep. faecalis SK & F 657; type: cell-based; conditions: Enterococcus faecalis
[17] = test system: Staph. aureus SK & F 2616; type: cell-based; conditions: Staphylococcus aureus

CN[C@H](CC(C)C)C(=O)N[C@H]1C(=O)N[C@@H](CC(N)=O)C(=O)N[C@H]2C(=O)N[C@H]3C(=O)N[C@H](C(=O)N[C@H](C(=O)O)c4cc(O)cc(O)c4-c4cc3ccc4O)[C@H](O)c3ccc(c(Cl)c3)Oc3cc2cc(c3O[C@@H]2O[C@H](CO)[C@@H](O)[C@H](O)[C@H]2O[C@H]2C[C@](C)(N)[C@H](O)[C@H](C)O2)Oc2ccc(cc2Cl)[C@H]1O [Vancomycin, reference compound]
MIC [1]: 100 µg/mL (≈ 69 µM)
MIC [2]: 1.6 µg/mL (≈ 1.1 µM)
MIC [3]: 1.6 µg/mL (≈ 1.1 µM)
MIC (Staph. aureus SK & F 675; Table C, Methicillin Resistant): 1.6 µg/mL (≈ 1.1 µM)
MIC (Staph. aureus SK & F 675; Table E): 3.1 µg/mL (≈ 2.14 µM)
MIC ([4]; Table A): 25 µg/mL (≈ 17.3 µM)
MIC ([4]; Table E): > 100 µg/mL
Propionate % (rumen in vitro model): 127 % Control and 130 % Control and 105 % Control
VFA (total of volatile fatty acids) (rumen in vitro model): 107 % Control and 97 % Control
MIC [5]: 1.6 µg/mL (≈ 1.1 µM)
MIC [6]: 1.6 µg/mL (≈ 1.1 µM)
MIC ([7]; Table A): 100 µg/mL (≈ 69 µM)
MIC ([7]; Table E): > 100 µg/mL
MIC [8]: 0.5 µg/mL (≈ 0.345 µM)
MIC (Providencia SK & F 276): > 100 µg/mL
MIC [9]: 1.6 µg/mL (≈ 1.1 µM)
ED50 (Staph. aureus HH 127): 1.76 mg/kg
MIC [10]: > 100 µg/mL
MIC [11]: 1.6 µg/mL (≈ 1.1 µM)
MIC [12]: 32 µg/mL (≈ 22.1 µM)
MIC [13]: 1.6 µg/mL (≈ 1.1 µM)
MIC [14]: 1.6 µg/mL (≈ 1.1 µM)
MIC [15]: 1.6 µg/mL (≈ 1.1 µM)
MIC [16]: 3.1 µg/mL (≈ 2.14 µM)
MIC [17]: 0.8 µg/mL (≈ 0.552 µM)

From US4672036A, “Pure cultures of Kibdelsporangium aridum Shearer gen. nov., sp. nov. ATCC 39323 and mutants thereof” (SmithKline Beckman Corporation, priority 1985, dated 1987)
